Paper PMC6934184, “Selective DNA-PKcs inhibition extends the therapeutic index of localized radiotherapy and chemotherapy” (The Journal of Clinical Investigation, 2019)

Target: T1, MAP4K5 (KHS1) (Homo sapiens, UniProt Q9Y4K4)
T1 construct: purchased Thermo Fisher Scientific (Life Technologies) SelectScreen
Experiment: SelectScreen Z'LYTE
Format: biochemical
Procedure, shortened: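 NU5455 was profiled across the SelectScreen Broad panel of kinase activity and binding assays. Z'LYTE reactions such as CSF1R ran at apparent Km ATP, while the Adapta CAMK1 assay used ATP listed as 10. Values are given as percent.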

T1 sequence (Q9Y4K4 whole entry): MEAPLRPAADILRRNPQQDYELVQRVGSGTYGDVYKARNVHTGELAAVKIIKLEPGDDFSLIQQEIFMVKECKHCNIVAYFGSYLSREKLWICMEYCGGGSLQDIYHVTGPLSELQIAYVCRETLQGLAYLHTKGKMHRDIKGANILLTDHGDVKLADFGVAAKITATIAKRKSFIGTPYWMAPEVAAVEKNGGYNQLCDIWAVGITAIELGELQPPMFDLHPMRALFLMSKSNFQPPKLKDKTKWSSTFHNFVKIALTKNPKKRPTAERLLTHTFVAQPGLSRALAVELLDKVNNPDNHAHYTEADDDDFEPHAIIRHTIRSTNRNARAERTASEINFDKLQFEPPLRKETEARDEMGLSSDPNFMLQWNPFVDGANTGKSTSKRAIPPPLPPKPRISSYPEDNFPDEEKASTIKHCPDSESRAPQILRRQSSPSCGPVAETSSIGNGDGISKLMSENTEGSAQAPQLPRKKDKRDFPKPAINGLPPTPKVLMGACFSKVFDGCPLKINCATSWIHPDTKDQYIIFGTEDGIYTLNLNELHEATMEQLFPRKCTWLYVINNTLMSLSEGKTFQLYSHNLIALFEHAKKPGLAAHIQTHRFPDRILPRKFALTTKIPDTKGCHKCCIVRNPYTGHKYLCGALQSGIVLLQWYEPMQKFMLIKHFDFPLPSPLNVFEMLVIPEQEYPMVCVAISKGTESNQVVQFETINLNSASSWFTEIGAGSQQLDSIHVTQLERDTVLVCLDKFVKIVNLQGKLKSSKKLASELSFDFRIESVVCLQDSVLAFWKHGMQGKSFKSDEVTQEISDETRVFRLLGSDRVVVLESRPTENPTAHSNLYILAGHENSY

CN(C(=O)CN1CCOCC1)c1ccc2sc3c(-c4cccc5c(=O)cc(N6CC7CCC(C6)O7)oc45)cccc3c2c1 [NU5455]
inhibition at 1 µM: -2%
